The results in this text go back to US9611262B2, “Substituted 2-azabicycles and their use as orexin receptor modulators” (JANSSEN PHARMACEUTICA NV, priority 2014, dated 2017).

The structures appear in SMILES notation.

The target of one assay is rat orexin 1 receptor (Rattus norvegicus, UniProt P56718). Kind of assay: Rat orexin 1 receptor radioligand binding (competitive). The conditions noted are these: HEK293 cells stably expressing rat orexin 1 receptor; 4 nM radioligand; averages of 2-20 runs; read-out: rOX1 Ki. As to the method:
(§1) The in vitro affinity of the compounds of the invention for the rat/human orexin 1 and human orexin 2 receptors was determined by competitive radioligand binding using [^3H](1-(5-(2-fluoro-phenyl)-2-methyl-thiazol-4-yl)-1-((S)-2-(5-phenyl-(1,3,4)oxadiazol-2-ylmethyl)-pyrrolidin-1-yl)-methanone) (Langmead et al., 2004) and [^3H]EMPA (n-ethyl-2[96-methoxy-pyridin-3-yl)-(toluene-2-sulfonyl)-amino]-N-pyridin-3-ylmethyl acetamide), respectively (Langmead et al., 2004, British Journal of Pharmacology 141:340-346; Malherbe et al., 2004, British Journal of Pharmacology 156:1326-41).
(§2) Data are analyzed using pc-Sandy macro and graphed on Graphpad Prism 5. For analysis, each concentration point is averaged from triplicate values and the averaged values are plotted on Graphpad Prism. The IC50 was determined by applying the following equation (GraphPad Prism 5.0, San Diego) for one site competition where X=log (concentration) and Y=specific binding. Top denotes the total [^3H]— (1-(5-(2-fluoro-phenyl)-2-methyl-thiazol-4-yl)-1-((S)-2-(5-phenyl-(1,3,4)oxadiazol-2-ylmethyl)-pyrrolidin-1-yl)-methanone) binding, bottom denotes the nonspecific [^3H]— (1-(5-(2-fluoro-phenyl)-2-methyl-thiazol-4-yl)-1-((S)-2-(5-phenyl-(1,3,4)oxadiazol-2-ylmethyl)-pyrrolidin-1-yl)-methanone) binding. Graphpad Prism calculates Ki value from IC50 and the pre-determined Kd values for [^3H]— (1-(5-(2-fluoro-phenyl)-2-methyl-thiazol-4-yl)-1-((S)-2-(5-phenyl-(1,3,4)oxadiazol-2-ylmethyl)-pyrrolidin-1-yl)-methanone) and [^3H]-EMPA. The Ki for each compound is then uploaded into 3DX. Each run comprises individual compounds in triplicate. The data in Table 1 and Table 2 represent averages from between 2-20 runs
(§3) Rat and Human Orexin 1 Receptor Radioligand Binding Studies
(§4) Human Embryonic Kidney 293 cells (HEK293) stably expressing rat orexin 1 receptor (Genebank accession number NM_001525) or Chinese ovary cells (CHO) stably expressing human orexin 1 receptor (Genebank accession number […]) were grown to confluency in DMEM (Hyclone, cat # SH30022), 10% FBS, 1× Pen/Strep, 1× sodium pyruvate, 10 mM HEPES, 600 μg/mL G418 and DMEM/F12 (Gibco, Cat #11039), 10% FBS, 1× Pen/Strep, 600 μg/mL G418 media, respectively on 150 cm^2 tissue culture plates, washed with 5 mM EDTA in PBS (HyClone Dulbecco's Phosphate Buffered Saline 1× with Calcium and Magnesium, Cat # SH30264.01, hereafter referred to simply as PBS) and scraped into 50 ml tubes. After centrifugation (2K×G, 5 min at 4° C.), the supernatant was aspirated and the pellets frozen and stored at −80° C. Cells were resuspended in PBS in the presence of 1 tablet of protease inhibitor cocktail (Roche, Cat. #11836145001) per 50 mL. […] Competition binding experiments in 96 well polypropylene plates were performed using [^3H]— (1-(5-(2-fluoro-phenyl)-2-methyl-thiazol-4-yl)-1-((S)-2-(5-phenyl-(1,3,4)oxadiazol-2-ylmethyl)-pyrrolidin-1-yl)-methanone) (Moraveck Corporation, specific activity=35.3 Ci/mmol), diluted to a 10 nM concentration in PBS (4 nM final). Compounds were solubilized in 100% DMSO (Acros Organics, Cat. #61042-1000) and tested over a range of 7 concentrations (from 0.1 nM to 10 μM). The final concentration of DMSO in the reactions is equal to or less than 0.1%. Total and nonspecific binding was determined in the absence and presence of 10 μM almorexant. The total volume of each reaction is 200 μL (20 μL of diluted compounds, 80 μL of [^3H]— (1-(5-(2-fluoro-phenyl)-2-methyl-thiazol-4-yl)-1-((S)-2-(5-phenyl-(1,3,4)oxadiazol-2-ylmethyl)-pyrrolidin-1-yl)-methanone) diluted in PBS and 100 μL of the cell suspension). Reactions were run for 60 min at room temperature and terminated by filtration through GF/C filter plates (PerkinElmer, Cat. #6005174) presoaked in 0.3% polyethylenimine using the cell harvester (PerkinElmer Filtermate). The plates were washed 3 times by aspirating 30 ml PBS through the plates. Plates were dried in 55° C. oven for 60 min, scintillation fluid was added, and the radioactivity was counted on a Topcount (Packard). […]

In another assay the target is human orexin 1 receptor (Homo sapiens (Human), UniProt O43613). Kind of assay: Human orexin 1 receptor radioligand binding (competitive). The conditions noted are these: CHO cells stably expressing human orexin 1 receptor; 4 nM radioligand; averages of 2-20 runs; read-out: hOX1 Ki. The protocol:
as §1, §2, §3, §4

Another assay has as its target human orexin 2 receptor (Homo sapiens (Human), UniProt O43614). Kind of assay: Human orexin 2 receptor radioligand binding ([3H]-EMPA competition). The conditions noted are these: HEK293 stably expressing human orexin 2 receptor; 2 nM [3H]-EMPA; averages of 2-20 runs; read-out: hOX2 Ki. A digest of the protocol:
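Membranes-free whole HEK293 cells stably expressing human OX2 receptor incubated with [3H]-EMPA and compound (7 concentrations, 0.1 nM–10 μM, ≤0.1% DMSO) for 60 min at room temperature; nonspecific binding with 10 μM almorexant. Filtration and scintillation counting; one-site IC50 converted to Ki using predetermined Kd, triplicates averaged over 2-20 runs.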

Sequence of human orexin 2 receptor (O43614 whole entry): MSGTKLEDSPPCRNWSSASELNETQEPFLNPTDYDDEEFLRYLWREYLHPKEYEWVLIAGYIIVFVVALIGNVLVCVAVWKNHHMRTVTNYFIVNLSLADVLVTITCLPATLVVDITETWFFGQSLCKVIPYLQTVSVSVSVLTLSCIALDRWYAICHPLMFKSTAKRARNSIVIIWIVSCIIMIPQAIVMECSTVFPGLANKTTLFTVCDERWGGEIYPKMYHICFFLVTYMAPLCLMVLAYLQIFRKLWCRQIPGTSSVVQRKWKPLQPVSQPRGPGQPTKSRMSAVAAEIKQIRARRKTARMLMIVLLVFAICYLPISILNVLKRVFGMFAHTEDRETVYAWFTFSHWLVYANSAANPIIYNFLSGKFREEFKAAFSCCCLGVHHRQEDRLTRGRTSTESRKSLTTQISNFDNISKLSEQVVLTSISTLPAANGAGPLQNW
Sequence of human orexin 1 receptor (O43613 whole entry): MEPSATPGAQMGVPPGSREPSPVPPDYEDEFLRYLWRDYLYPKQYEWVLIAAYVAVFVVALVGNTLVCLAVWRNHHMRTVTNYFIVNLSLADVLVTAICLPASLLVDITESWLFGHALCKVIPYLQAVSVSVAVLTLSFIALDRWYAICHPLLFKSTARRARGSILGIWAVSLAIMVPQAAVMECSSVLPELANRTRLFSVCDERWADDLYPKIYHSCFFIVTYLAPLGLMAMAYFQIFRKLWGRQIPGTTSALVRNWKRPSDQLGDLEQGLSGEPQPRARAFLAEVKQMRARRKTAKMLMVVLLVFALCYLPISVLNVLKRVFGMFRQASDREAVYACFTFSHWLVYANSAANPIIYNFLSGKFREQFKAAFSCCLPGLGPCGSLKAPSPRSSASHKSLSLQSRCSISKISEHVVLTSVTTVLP

`C[C@@H]1[C@H]2C[C@@H](Nc3ccc(C(F)(F)F)cn3)[C@H](C2)N1C(=O)c1ncccc1-c1ncccn1` (relative stereo) [Example 62, ((1S*,3R*,4S*,6R*)-3-methyl-6-((5-(trifluoromethyl)pyridin-2-yl)amino)-2-azabicyclo[2.2.1]heptan-2-yl)(3-(pyrimidin-2-yl)pyridin-2-yl)methanone]: the values for the Ki at rat orexin 1 receptor, on human orexin 1 receptor and at human orexin 2 receptor were 0.005 µM, 0.004 µM and 0.36 µM, respectively.
`Cc1ccc(-c2ncccn2)c(C(=O)N2[C@H](C)[C@H]3C[C@@H](Nc4ccc(C(F)(F)F)cn4)[C@@H]2C3)n1` [Example 60, (6-methyl-3-(pyrimidin-2-yl)pyridin-2-yl)((1S,3R,4S,6R)-3-methyl-6-((5-(trifluoromethyl)pyridin-2-yl)amino)-2-azabicyclo[2.2.1]heptan-2-yl)methanone]: the inhibition constant Ki (usually the dissociation constant of the complex between target and ligand, obtained from inhibition or displacement) was 0.016 µM on rat orexin 1 receptor, 0.019 µM on human orexin 1 receptor and 0.349 µM at human orexin 2 receptor.
Turning to `O=C(c1cc(F)ccc1-c1ncc(F)cn1)N1[C@H](CF)[C@@H]2CC[C@H]1[C@H](Oc1ccc(C(F)(F)F)cn1)C2` [Example 80, (5-fluoro-2-(5-fluoropyrimidin-2-yl)phenyl)((1S,3S,4R,6R)-3-(fluoromethyl)-6-((5-(trifluoromethyl)pyridin-2-yl)oxy)-2-azabicyclo[2.2.2]octan-2-yl)methanone], the Ki stood at 0.043 µM on rat orexin 1 receptor, 0.035 µM at human orexin 1 receptor and 4.17 µM on human orexin 2 receptor.
Regarding `CCC1C2CC(Oc3ccc(C(F)(F)F)cn3)C(C2)N1C(=O)c1cccc(F)c1-c1ncccn1` (racemic) [Example 217, (R/S)-[2-ethyl-5-[[5-(trifluoromethyl)-2-pyridyl]oxy]-3-azabicyclo[2.2.1]heptan-3-yl]-(3-fluoro-2-pyrimidin-2-yl-phenyl)methanone], the Ki on rat orexin 1 receptor was 0.013 µM; at human orexin 1 receptor it was 0.009 µM; on human orexin 2 receptor it was 0.243 µM.
For the molecule `Cc1ccc(-n2nccn2)c(C(=O)N2[C@H](C)[C@H]3C[C@@H](Oc4ccc(C(F)F)cn4)[C@@H]2C3)n1` [Example 110, [(1R,2R,4S,5R)-5-[[5-(difluoromethyl)-2-pyridyl]oxy]-2-methyl-3-azabicyclo[2.2.1]heptan-3-yl]-[6-methyl-3-(triazol-2-yl)-2-pyridyl]methanone], the Ki came to 0.007 µM on rat orexin 1 receptor, 0.005 µM at human orexin 1 receptor and 0.146 µM at human orexin 2 receptor.
In the case of `Cc1cnc(C(=O)N2C(C)C3CC(Nc4ccc(C(F)(F)F)cn4)C2C3)c(-c2ncccn2)c1` (racemic) [Example 59, (R/S)-(5-methyl-3-(pyrimidin-2-yl)pyridin-2-yl)(3-methyl-6-((5-(trifluoromethyl)pyridin-2-yl)amino)-2-azabicyclo[2.2.1]heptan-2-yl)methanone], the Ki at rat orexin 1 receptor was found to be 0.02 µM; at human orexin 1 receptor, 0.053 µM; on human orexin 2 receptor, 4.1 µM.
Consider `Cc1ccc(-n2nccn2)c(C(=O)N2[C@H](C)[C@@H]3CC[C@H]2[C@H](Oc2ccc(C(F)(F)F)cn2)C3)n1` [Example 156, [6-methyl-3-(triazol-2-yl)-2-pyridyl]-[(1R,2R,4S,5R)-2-methyl-5-[[5-(trifluoromethyl)-2-pyridyl]oxy]-3-azabicyclo[2.2.2]octan-3-yl]methanone], for which the figures for the Ki at rat orexin 1 receptor, on human orexin 1 receptor and on human orexin 2 receptor were 0.006 µM, 0.01 µM and 1.1 µM, respectively.
For `C[C@@H]1[C@H]2C[C@@H](Oc3cnc4cc(F)ccc4n3)[C@H](C2)N1C(=O)c1cccc(F)c1-n1nccn1` (relative stereo) [Example 187, (3-fluoro-2-(2H-1,2,3-triazol-2-yl)phenyl)((1S*,3R*,4R*,6R*)-6-((6-fluoroquinoxalin-2-yl)oxy)-3-methyl-2-azabicyclo[2.2.1]heptan-2-yl)methanone] the same measures were 0.007 µM, 0.006 µM and 0.136 µM.
With `CC1C2CC(Nc3cnc(C(F)(F)F)cn3)C(C2)N1C(=O)c1cccc(F)c1-c1ncccn1` (single isomer, unassigned) [Example 4, (R/S)-(3-fluoro-2-(pyrimidin-2-yl)phenyl)(3-methyl-6-((5-(trifluoromethyl)pyrazin-2-yl)amino)-2-azabicyclo[2.2.1]heptan-2-yl)methanone], the inhibition constant Ki on rat orexin 1 receptor amounted to 0.056 µM; on human orexin 1 receptor, 0.059 µM.
Regarding `CC1C2CC(Oc3ccc(C(F)(F)F)cn3)C(C2)N1C(=O)c1ccccc1-c1ncc(F)cn1` (racemic) [Example 19, (R/S)-(2-(5-fluoropyrimidin-2-yl)phenyl)(3-methyl-6-((5-(trifluoromethyl)pyridin-2-yl)oxy)-2-azabicyclo[2.2.1]heptan-2-yl)methanone], the Ki on rat orexin 1 receptor worked out at 0.01 µM; at human orexin 1 receptor, 0.029 µM.
For `Cc1cnc(C(=O)N2[C@H](C)[C@H]3C[C@@H](Oc4ccc(C(F)(F)F)cn4)[C@@H]2C3)c(-c2ncccn2)c1` (relative stereo) [Example 35, (5-methyl-3-(pyrimidin-2-yl)pyridin-2-yl)((1S*,3R*,4R*,6R*)-3-methyl-6-((5-(trifluoromethyl)pyridin-2-yl)oxy)-2-azabicyclo[2.2.1]heptan-2-yl)methanone] the same measures were 0.004 µM and 0.007 µM.
Consider `Cc1ccc(-c2ncccn2)c(C(=O)N2C(C)C3CC(Oc4cnc(C(F)(F)F)cn4)C2C3)n1` (racemic) [Example 44, (R/S)-(6-methyl-3-(pyrimidin-2-yl)pyridin-2-yl)(3-methyl-6-((5-(trifluoromethyl)pyrazin-2-yl)oxy)-2-azabicyclo[2.2.1]heptan-2-yl)methanone], for which the inhibitory constant (Ki) on rat orexin 1 receptor came out at 0.071 µM; on human orexin 1 receptor, 0.055 µM.
For the molecule `C[C@@H]1[C@H]2C[C@@H](Oc3cnc4ccccc4n3)[C@H](C2)N1C(=O)c1cccc(F)c1-n1nccn1` (relative stereo) [Example 184, (3-fluoro-2-(2H-1,2,3-triazol-2-yl)phenyl)((1S*,3R*,4R*,6R*)-3-methyl-6-(quinoxalin-2-yloxy)-2-azabicyclo[2.2.1]heptan-2-yl)methanone], the Ki on rat orexin 1 receptor was determined as 0.004 µM; on human orexin 1 receptor, 0.002 µM.
For `COc1ccc(C(=O)N2[C@H](C)[C@H]3C[C@@H](Oc4ccc(C(F)(F)F)cn4)[C@@H]2C3)c(-n2nccn2)c1` (relative stereo) [Example 31, (4-methoxy-2-(2H-1,2,3-triazol-2-yl)phenyl)((1S*,3R*,4R*,6R*)-3-methyl-6-((5-(trifluoromethyl)pyridin-2-yl)oxy)-2-azabicyclo[2.2.1]heptan-2-yl)methanone], the Ki at rat orexin 1 receptor and on human orexin 1 receptor was 0.006 µM in each case.
